Data published in patent US8609680B2, “2,3-dihydro-1H-inden-1-yl-2,7-diazaspiro[3.5] nonane derivatives” (Pfizer Inc., priority 2010, dated 2013).
Where two headings read alike, the source gives them in different places.

Target: T1, human GHSR1a (Homo sapiens, UniProt Q92847)
T1 construct: expressed in transfected cells; host or cells: HEK293 Tetracycline-Inducible cell line, used as membranes
Experiment: Human Ghrelin SPA Binding Assay
Excerpt: The SPA format was utilized for high throughput screening of test compounds and filter binding served for more comprehensive binding characterization.
Human Ghrelin SPA Binding Assay

[1] = SPA format, [125I] ghrelin displacement, human GHSR1a membranes from HEK293 Tetracycline-Inducible cell line

T1 sequence (Q92847 whole entry): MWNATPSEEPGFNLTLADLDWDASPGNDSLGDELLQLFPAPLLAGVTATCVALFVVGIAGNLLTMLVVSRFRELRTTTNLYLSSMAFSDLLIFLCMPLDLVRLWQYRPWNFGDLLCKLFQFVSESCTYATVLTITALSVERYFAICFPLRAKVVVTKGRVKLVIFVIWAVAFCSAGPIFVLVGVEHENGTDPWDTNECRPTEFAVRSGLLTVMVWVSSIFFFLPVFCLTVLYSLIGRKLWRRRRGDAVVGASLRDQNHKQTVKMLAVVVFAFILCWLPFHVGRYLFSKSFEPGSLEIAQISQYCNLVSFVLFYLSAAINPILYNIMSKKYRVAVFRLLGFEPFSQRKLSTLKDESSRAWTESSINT

In the case of `COc1ccc(CC(=O)N2CCC3(CC2)CN([C@@H]2CCc4cc(-c5ncco5)ccc42)C3)nc1` [Example 3AG], the IC50 is reported as 40.1 nM and the Ki is reported as 33.1 nM.

With `O=C(Cc1cn(-c2ccccc2)cn1)N1CCC2(CC1)CN([C@@H]1CCc3cc(-c4ncccn4)ccc31)C2` [Example 3AV] the IC50 was 229 nM and the Ki was 198 nM.

With `COc1ccc(CC(=O)N2CCC3(CC2)CN(C2CCc4cc(-c5nccc(C)n5)ccc42)C3)cc1` (centres unmarked) [Example 1J] the IC50 was 5.25 nM and the Ki was 5.12 nM.

With `O=C(Cc1n[nH]c2ccccc12)N1CCC2(CC1)CN(C1CCc3cc(-c4ncccn4)ccc31)C2` (centres unmarked) [Example 1C] the IC50 was 16.4 nM and the Ki was 14.2 nM.

For `Cc1nn2cc(CC(=O)N3CCC4(CC3)CN(C3CCc5cc(-n6nccn6)ccc53)C4)nc2s1` (centres unmarked) [Example 1H], the IC50 was 11.1 nM and the Ki was 10.4 nM.

Molecule `COc1ccc(CC(=O)N2CCC3(CC2)CN([C@@H]2CCc4cc(-c5cc(C#N)ncn5)ccc42)C3)nc1` [Example 3AC] has an IC50 of 40.5 nM and a Ki of 33.8 nM.

In the case of `O=C(Cc1cc2ccccn2n1)N1CCC2(CC1)CN(C1CCc3cc(-c4ncccn4)ccc31)C2` (racemic) [Example 5H], the IC50 is reported as 5.9 nM.

Work on `O=C(Cc1ccc(C2CC2)cc1)N1CCC2(CC1)CN(C1CCc3cc(-c4ncccn4)ccc31)C2` (racemic) [Example 5A, 7-[(4-Cyclopropylphenyl)acetyl]-2-(5-pyrimidin-2-yl-2,3-dihydro-1H-inden-1-yl)-2,7-diazaspiro[3.5]nonane] yielded an IC50 of 7.02 nM and a Ki of 6.15 nM.

Molecule `O=C(Cc1ccc2c(n1)OCCO2)N1CCC2(CC1)CN([C@@H]1CCc3cc(-c4ncccn4)ccc31)C2` [Example 3R] has an IC50 of 25.5 nM and a Ki of 22.2 nM.

In the case of `NC(=O)c1ccc(-c2ccc3c(c2)CC[C@H]3N2CC3(CCN(C(=O)Cc4cn5ccccc5n4)CC3)C2)cn1` [Example 9E], the IC50 is reported as 33.7 nM and the Ki is reported as 29.2 nM.

Work on `CCn1ccc(CC(=O)N2CCC3(CC2)CN([C@@H]2CCc4cc(-c5ncccn5)ccc42)C3)n1` [Example 3AS] yielded an IC50 of 143 nM and a Ki of 122 nM.

`COc1ccc(CC(=O)N2CCC3(CC2)CN([C@@H]2CCc4cc(-n5cc(C)cn5)ccc42)C3)nc1` [Example 8A, 7-[(5-methoxypyridin-2-yl)acetyl]-2-[(1R)-5-(4-methyl-1H-pyrazol-1-yl)-2,3-dihydro-1H-inden-1-yl]-2,7-diazaspiro[3.5]nonane] gave an IC50 of 29 nM and a Ki of 24.7 nM.

For `Cc1ccn2cc(CC(=O)N3CCC4(CC3)CN([C@@H]3CCc5cc(-c6ccc(C(N)=O)cc6)ccc53)C4)nc2c1` [Example 4A, 4-[(1R)-1-{7-[(7-methylimidazo[1,2-a]pyridin-2-yl)acetyl]-2,7-diazaspiro[3.5]non-2-yl}-2,3-dihydro-1H-inden-5-yl]benzamide], the IC50 was 9.29 nM and the Ki was 8.02 nM.

Molecule `Cc1ccc(CC(=O)N2CCC3(CC2)CN([C@@H]2CCc4cc(-c5ncccn5)ccc42)C3)cc1` [Example 5E] has an IC50 of 18.6 nM and a Ki of 15.6 nM.

Molecule `Cc1cc(CC(=O)N2CCC3(CC2)CN([C@@H]2CCc4cc(-c5ncccn5)ccc42)C3)[nH]n1` [Example 3AX] has an IC50 of 801 nM and a Ki of 691 nM.

`O=C(Cc1ccc(C2CC2)cc1)N1CCC2(CC1)CN([C@@H]1CCc3cc(-c4ncccn4)ccc31)C2` [Example 5A-1, (R)-7-[(4-cyclopropylphenyl)acetyl]-2-(5-pyrimidin-2-yl-2,3-dihydro-1H-inden-1-yl)-2,7-diazaspiro[3.5]nonane] was tested, and the IC50 was 4.5 nM and the Ki was 3.77 nM.

For `COc1ccc(CC(=O)N2CCC3(CC2)CN(C2CCc4cc(-c5ncc(C)cn5)ccc42)C3)cc1` (racemic) [Example 1E], the IC50 was 34.1 nM.

`CCc1ccc(CC(=O)N2CCC3(CC2)CN([C@@H]2CCc4cc(-c5ccc(C(N)=O)cc5)ccc42)C3)nc1` [Example 4C] was tested, and the IC50 was 49.3 nM and the Ki was 43.3 nM.

With `COc1ccc(CC(=O)N2CCC3(CC2)CN([C@@H]2CCc4cc(-n5cc(C)cn5)ccc42)C3)cc1` [Example 8B] the IC50 was 10.5 nM and the Ki was 8.97 nM.

For `Cc1ccn2cc(CC(=O)N3CCC4(CC3)CN([C@@H]3CCc5cc(-c6cnc(C(N)=O)cn6)ccc53)C4)nc2c1` [Example 10B], the IC50 was 23.4 nM and the Ki was 20.3 nM.

`NC(=O)c1cnc(-c2ccc3c(c2)CC[C@H]3N2CC3(CCN(C(=O)Cc4cn5ccccc5n4)CC3)C2)cn1` [Example 10C] showed an IC50 of 93.1 nM and a Ki of 80.8 nM.

Work on `COc1ccc(CC(=O)N2CCC3(CC2)CN([C@@H]2CCc4cc(-c5ccc(C(N)=O)nc5)ccc42)C3)nc1` [Example 9B] yielded an IC50 of 55.2 nM and a Ki of 47.5 nM.

For `COc1ccc(CC(=O)N2CCC3(CC2)CN([C@@H]2CCc4ccccc42)C3)cc1` [Example 3AJ], the IC50 was 293 nM and the Ki was 261 nM.

`Cc1cn2cc(CC(=O)N3CCC4(CC3)CN([C@@H]3CCc5cc(-c6ccc(C(N)=O)nc6)ccc53)C4)nc2s1` [Example 9D] was tested, and the IC50 was 12.2 nM and the Ki was 10.6 nM.

`Cc1ccc(CC(=O)N2CCC3(CC2)CN([C@@H]2CCc4cc(-c5ccc(C(N)=O)nc5)ccc42)C3)nc1` [Example 9C] was tested, and the IC50 was 117 nM and the Ki was 102 nM.

Work on `CCc1ccc(CC(=O)N2CCC3(CC2)CN([C@@H]2CCc4cc(-c5cnc(C(N)=O)cn5)ccc42)C3)nc1` [Example 10H] yielded an IC50 of 141 nM and a Ki of 123 nM.

`O=C(Cc1cc2n(n1)CCCC2)N1CCC2(CC1)CN(C1CCc3cc(-c4ncccn4)ccc31)C2` (racemic) [Example 5I] showed an IC50 of 8.57 nM and a Ki of 9.26 nM.

For `N#Cc1cc(-c2ccc3c(c2)CC[C@H]3N2CC3(CCN(C(=O)Cc4ccc(C5CC5)cn4)CC3)C2)ncn1` [Example 3AZ], the IC50 was 17.4 nM and the Ki was 15.4 nM.

For `Cc1ccc(CC(=O)N2CCC3(CC2)CN([C@@H]2CCc4cc(-c5ncccn5)ccc42)C3)c(C(N)=O)c1` [Example 7A], the IC50 was 42.2 nM and the Ki was 37.5 nM.

In the case of `COc1ccc(CC(=O)N2CCC3(CC2)CN([C@@H]2CCc4cc(-c5ccc(C#N)nc5)ccc42)C3)nc1` [Example 4B, 5-[(1R)-1-{7-[(5-methoxypyridin-2-yl)acetyl]-2,7-diazaspiro[3.5]non-2-yl}-2,3-dihydro-1H-inden-5-yl]pyridine-2-carbonitrile], the IC50 is reported as 70.5 nM and the Ki is reported as 60.7 nM.

`CCc1ccc(CC(=O)N2CCC3(CC2)CN([C@@H]2CCc4cc(-n5nccn5)ccc42)C3)nc1` [Example 5D] showed an IC50 of 18.6 nM and a Ki (SPA format, [125I] ghrelin displacement, human GHSR1a membranes, Ki=IC50/(1+[ligand]/Kd)) of 16.1 nM.

Molecule `COc1ccc(CC(=O)N2CCC3(CC2)CN(C2CCc4cc(Oc5ccccc5)ccc42)C3)nc1` (racemic) [Example 1I] has an IC50 of 36.6 nM and a Ki of 29.5 nM.

For `Cc1cn2cc(CC(=O)N3CCC4(CC3)CN(C3CCc5cc(-c6ncccn6)ccc53)C4)nc2s1` (centres unmarked) [Example 1B], the Ki was 4.59 nM and the IC50 [1] was 3.79 nM.

Molecule `COc1ccc(CC(=O)N2CCC3(CC2)CN([C@@H]2CCc4cc(-c5cc(OC)ncn5)ccc42)C3)nc1` [Example 3V] has an IC50 of 20.7 nM and a Ki of 17.4 nM.

`COc1ccc(CC(=O)N2CCC3(CC2)CN([C@@H]2CCc4cc(-c5cnc(C(N)=O)cn5)ccc42)C3)nc1` [Example 10A, 5-[(1R)-1-{7-[(5-methoxypyridin-2-yl)acetyl]-2,7-diazaspiro[3.5]non-2-yl}-2,3-dihydro-1H-inden-5-yl]pyrazine-2-carboxamide] showed an IC50 of 62.6 nM and a Ki of 55.5 nM.

`Cc1nn2cc(CC(=O)N3CCC4(CC3)CN([C@@H]3CCc5cc(-c6ncccn6)ccc53)C4)nc2s1` [Example 3O] showed an IC50 of 30.2 nM and a Ki of 28.1 nM.

`COc1ccc(CC(=O)N2CCC3(CC2)CN(C2CCc4cc(-c5cc(C)ccn5)ccc42)C3)nc1` (racemic) [Example 2G] gave an IC50 of 6.22 nM.

For `NC(=O)c1ccc(-c2ccc3c(c2)CC[C@H]3N2CC3(CCN(C(=O)Cc4cn5ccccc5n4)CC3)C2)cc1` [Example 4E], the IC50 was 42.6 nM and the Ki was 36.8 nM.

Work on `O=C(Cc1ccc(C(F)(F)F)cc1)N1CCC2(CC1)CN([C@@H]1CCc3cc(-c4ncccn4)ccc31)C2` [Example 3AH] yielded an IC50 of 90.2 nM and a Ki of 72.8 nM.

For `CCc1cc(-c2ccc3c(c2)CC[C@H]3N2CC3(CCN(C(=O)Cc4ccc(OC)cc4C#N)CC3)C2)ncn1` [Example 3AB], the IC50 was 32.9 nM and the Ki was 28.8 nM.

Molecule `CCOc1ccc(CC(=O)N2CCC3(CC2)CN([C@@H]2CCc4cc(-n5nccn5)ccc42)C3)nc1` [Example 6G] has an IC50 of 43.2 nM and a Ki of 34.4 nM.

For `Cc1ccc(CC(=O)N2CCC3(CC2)CN([C@@H]2CCc4cc(-n5nccn5)ccc42)C3)nc1` [Example 6A, 7-[(5-methylpyridin-2-yl)acetyl]-2-[5-(2H-1,2,3-triazol-2-yl)-2,3-dihydro-1H-inden-1-yl]-2,7-diazaspiro[3.5]nonane], the Ki was 54.8 nM.

`COc1ccc(CC(=O)N2CCC3(CC2)CN([C@@H]2CCc4cc(-c5ncccn5)ccc42)C3)c(C(N)=O)c1` [Example 7B] showed an IC50 of 25.5 nM and a Ki of 22.2 nM.

With `COc1ccc(CC(=O)N2CCC3(CC2)CN([C@@H]2CCc4cc(-c5nnc(C)s5)ccc42)C3)nc1` [Example 6J] the IC50 was 327 nM and the Ki was 264 nM.

`COc1ccc(CC(=O)N2CCC3(CC2)CN(C2CCc4cc(-c5nccs5)ccc42)C3)nc1` (centres unmarked) [Example 1F-1] showed a Ki of 3.98 nM and an IC50 [1] of 5.46 nM.

`COc1ccc(CC(=O)N2CCC3(CC2)CN(C2CCc4cc(-c5nccs5)ccc42)C3)nc1` (racemic) [Example 1F] showed a Ki of 22.8 nM.

`COc1ccc(CC(=O)N2CCC3(CC2)CN([C@@H]2CCc4cc(-c5ccc(C(N)=O)cn5)ccc42)C3)nc1` [Example 11A, 6-((R)-1-{7-[2-(5-Methoxy-pyridin-2-yl)-acetyl]-2,7-diaza-spiro[3.5]non-2-yl}indan-5-yl)-nicotinamide] was tested, and the IC50 was 33.3 nM and the Ki was 28.6 nM.

`COc1ccc(CC(=O)N2CCC3(CC2)CN(C2CCc4cc(-c5ccnc(C)n5)ccc42)C3)cc1` (centres unmarked) [Example 1D] showed an IC50 of 19.4 nM.

Work on `COc1ccc(CC(=O)N2CCC3(CC2)CN(C2CCc4cc(-c5ccc(C)cn5)ccc42)C3)nc1` (racemic) [Example 2D] yielded an IC50 of 21.4 nM.

Molecule `Cc1ccc(CC(=O)N2CCC3(CC2)CN([C@@H]2CCc4cc(-c5nccc(C)n5)ccc42)C3)nc1` [Example 3T] has an IC50 of 82.4 nM and a Ki of 73 nM.

`COc1ccc(CC(=O)N2CCC3(CC2)CN(C2CCc4cc(-c5ncc(OC)cn5)ccc42)C3)nc1` (racemic) [Example 2E] showed an IC50 of 35.2 nM and a Ki of 63.6 nM.
